Among the data in US11613542B2, “Sulfonylureas and sulfonylthioureas as NLRP3 inhibitors” (Inflazome Limited, priority 2017, dated 2023) are IC50 values, retold here.

Where a name gives a salt, the structure may show the parent alone.

Assay [1] concerns the target T1, NLRP3 (Homo sapiens, UniProt Q96P20). Kind of assay: THP-1 cells pyroptosis assay. The class given is cell-based. Also noted: Seed THP-1 cells (25,000 cells/well) containing 1.0 μg/ml LPS; host or cells: THP-1 cells, LPS-primed, nigericin-stimulated. Particulars: THP-1 cells, 1.0 μg/ml LPS, compound 3 hrs, nigericin 5 μM 1 hr, resazurin readout; read-out: THP IC50. An outline of the steps:
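THP-1 cells (25,000/well) in serum-free RPMI with 1.0 μg/ml LPS, treated with compound (8-point half-log dilution, 10 μM top, 0.1% DMSO), then nigericin 5 μM final. Viability read by resazurin (100 μM final, 1-2 h, 37° C) fluorescence Ex 560/Em 590 nm; IC50 from 4-parameter variable-slope fit.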

Assay [2] deals with T1, NLRP3. As to the kind of experiment: Human whole blood IL1β release assay. Type of assay: cell-based. Also noted: Human whole blood in Li-heparin tubes was obtained from healthy donors; from tissue; host or cells: human whole blood from healthy donors, LPS-primed, nigericin-stimulated. Particulars: human whole blood, 1 μg/ml LPS, compound 3 hrs, nigericin 10 μM 1 hr, IL-1β AlphaLisa; read-out: HWB IC50. As to the method: Human Whole Blood IL1β Release Assay
For systemic delivery, the ability to inhibit NLRP3 when the compounds are present within the bloodstream is of great importance. For this reason, the NLRP3 inhibitory activity of a number of compounds in human whole blood was investigated in accordance with the following protocol.
Human whole blood in Li-heparin tubes was obtained from healthy donors from a volunteer donor panel. • 1. Plate out 80 μl of whole blood containing 1 μg/ml of LPS in 96-well, clear bottom cell culture plate (Corning #3585) • 2. Add 10 μl compound (8 points half-log dilution with 10 μM top dose) or vehicle (DMSO 0.1% FAC) to the appropriate wells • 3. Incubate for 3 hrs at 37° C., 5% CO2 • 4. Add 10 μl Nigericin (Sigma #N7143) (10 μM FAC) to all wells • 5. Incubate for 1 hr at 37° C., 5% CO2 • 6. At the end of the incubation period, spin plates at 300 xg for 5 mins to pellet cells and remove 20 μl of supernatant and add to 96-well v-bottom plates for IL-1β analysis (note: these plates containing the supernatants can be stored at −80° C. to be analysed at a later date) • 7. IL-1β was measured according to the manufacturer protocol (Perkin Elmer-AlphaLisa IL-1 Kit AL220F-5000) • 8. IC50 data is fitted to a non-linear regression equation (log inhibitor vs response-variable slope 4-parameters)
A general note: In Alpha technology, singlet oxygen from a donor bead excites a nearby acceptor bead.

T1 sequence (Q96P20 whole entry): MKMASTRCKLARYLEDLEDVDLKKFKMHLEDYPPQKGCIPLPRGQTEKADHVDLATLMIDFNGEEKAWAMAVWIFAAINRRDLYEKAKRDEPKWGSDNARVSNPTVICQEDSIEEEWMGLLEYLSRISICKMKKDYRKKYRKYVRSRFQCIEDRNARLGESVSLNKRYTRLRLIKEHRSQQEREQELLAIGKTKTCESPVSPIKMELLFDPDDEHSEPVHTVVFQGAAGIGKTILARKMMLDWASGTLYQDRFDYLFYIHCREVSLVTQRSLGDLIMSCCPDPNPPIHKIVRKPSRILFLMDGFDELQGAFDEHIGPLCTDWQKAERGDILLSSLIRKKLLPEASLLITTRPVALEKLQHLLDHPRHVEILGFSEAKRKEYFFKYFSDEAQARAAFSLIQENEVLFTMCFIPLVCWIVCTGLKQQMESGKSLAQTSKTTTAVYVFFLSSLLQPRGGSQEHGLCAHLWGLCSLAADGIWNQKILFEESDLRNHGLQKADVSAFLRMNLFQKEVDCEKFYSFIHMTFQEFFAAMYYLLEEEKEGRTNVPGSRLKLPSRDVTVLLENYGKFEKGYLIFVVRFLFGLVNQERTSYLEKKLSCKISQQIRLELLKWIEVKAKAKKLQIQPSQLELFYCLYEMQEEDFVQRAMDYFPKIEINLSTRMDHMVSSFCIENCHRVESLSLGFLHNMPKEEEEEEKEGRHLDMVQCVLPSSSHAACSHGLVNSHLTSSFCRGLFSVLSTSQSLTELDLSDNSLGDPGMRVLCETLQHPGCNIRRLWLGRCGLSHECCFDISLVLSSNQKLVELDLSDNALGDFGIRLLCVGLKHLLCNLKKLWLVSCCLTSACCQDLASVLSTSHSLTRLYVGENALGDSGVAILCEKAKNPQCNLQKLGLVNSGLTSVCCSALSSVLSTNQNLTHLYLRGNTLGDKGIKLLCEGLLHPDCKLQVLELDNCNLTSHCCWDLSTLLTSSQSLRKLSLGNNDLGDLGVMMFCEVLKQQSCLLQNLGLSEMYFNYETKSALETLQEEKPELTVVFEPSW

Take `CN1CC(Cn2ccc(S(=O)(=O)NC(=O)Nc3c4c(cc5c3CCC5)CCC4)n2)C1` [Example 19, N-((1,2,3,5,6,7-Hexahydro-s-indacen-4-yl)carbamoyl)-1-((1-methylazetidin-3-yl)methyl)-1H-pyrazole-3-sulfonamide]: the IC50 is less than 640 nM at NLRP3 [1] and less than 3200 nM at NLRP3 [2].
Take `CN1CCC[C@@H]1Cn1ccc(S(=O)(=O)NC(=O)Nc2c3c(cc4c2CCC4)CCC3)n1` [Example 21, (R)—N-((1,2,3,5,6,7-Hexahydro-s-indacen-4-yl)carbamoyl)-1-((1-methylpyrrolidin-2-yl)methyl)-1H-pyrazole-3-sulfonamide]: the figures for the IC50 at NLRP3 [1] and at NLRP3 [2] were less than 640 nM and less than 800 nM, respectively.
The like results for `CN(C)CCn1cnc(S(=O)(=O)NC(=O)Nc2c3c(cc4c2CCC4)CCC3)c1` [Example 23, 1-(2-(Dimethylamino)ethyl)-N-((1,2,3,5,6,7-hexahydro-s-indacen-4-yl)carbamoyl)-1H-imidazole-4-sulfonamide] were, in that order, less than 2560 nM and less than 3200 nM.
Taken in the same sequence, the figures for `CN(C)CCn1cc(S(=O)(=O)NC(=O)Nc2c3c(cc4c2CCC4)CCC3)nn1` [Example 25, 1-(2-(Dimethylamino)ethyl)-N-((1,2,3,5,6,7-hexahydro-s-indacen-4-yl)carbamoyl)-1H-1,2,3-triazole-4-sulfonamide, sodium salt] were less than 640 nM and less than 3200 nM.
For `COc1cc(-c2ccc3c(c2NC(=O)NS(=O)(=O)c2ccn(CCN(C)C)n2)CCC3)ccn1` [Example 26, 1-(2-(Dimethylamino)ethyl)-N-((5-(2-methoxypyridin-4-yl)-2,3-dihydro-1H-inden-4-yl)carbamoyl)-1H-pyrazole-3-sulfonamide], the IC50 at NLRP3 [1] is less than 160 nM; on NLRP3 [2], less than 400 nM.
Taken in the same sequence, the figures for `CN(C)CCn1cnc(S(=O)(=O)NC(=O)Nc2c3c(cc4c2CCC4)CCC3)n1` [Example 27, 1-(2-(Dimethylamino)ethyl)-N-((1,2,3,5,6,7-hexahydro-s-indacen-4-yl)carbamoyl)-1H-1,2,4-triazole-3-sulfonamide] were less than 640 nM and less than 800 nM.
As to `CN(C)CCn1ccc(S(=O)(=O)NC(=O)Nc2c(-c3cccnc3)cc(F)c3c2CCC3)n1` [Example 28, 1-(2-(Dimethylamino)ethyl)-N-((7-fluoro-5-(pyridin-3-yl)-2,3-dihydro-1H-inden-4-yl)carbamoyl)-1H-pyrazole-3-sulfonamide], the figures for the IC50 at NLRP3 [1] and at NLRP3 [2] were less than 640 nM and less than 3200 nM, respectively.
Take `COc1cc(-c2cc(F)c3c(c2NC(=O)NS(=O)(=O)c2ccn(CCN(C)C)n2)CCC3)ccn1` [Example 29, 1-(2-(Dimethylamino)ethyl)-N-((7-fluoro-5-(2-methoxypyridin-4-yl)-2,3-dihydro-1H-inden-4-yl)carbamoyl)-1H-pyrazole-3-sulfonamide]: the IC50 at NLRP3 [1] is less than 40 nM; on NLRP3 [2], less than 400 nM.
The like results for `CC(C)c1cc(F)cc(-c2cccnc2)c1NC(=O)NS(=O)(=O)c1ccn(CCN(C)C)n1` [Example 30, 1-(2-(Dimethylamino)ethyl)-N-((4-fluoro-2-isopropyl-6-(pyridin-3-yl)phenyl)carbamoyl)-1H-pyrazole-3-sulfonamide] were, in that order, less than 640 nM and less than 800 nM.
Taken in the same sequence, the figures for `CC(C)(C#N)n1ccc(S(=O)(=O)NC(=O)Nc2c3c(cc4c2CCC4)CCC3)n1` [Example 33, 1-(2-Cyanopropan-2-yl)-N-((1,2,3,5,6,7-hexahydro-s-indacen-4-yl)carbamoyl)-1H-pyrazole-3-sulfonamide] were less than 160 nM and less than 1600 nM.
The like results for `N#CCn1ccc(S(=O)(=O)NC(=O)Nc2c3c(cc4c2CCC4)CCC3)n1` [Example 34, 1-(Cyanomethyl)-N-((1,2,3,5,6,7-hexahydro-s-indacen-4-yl)carbamoyl)-1H-pyrazole-3-sulfonamide] were, in that order, less than 640 nM and less than 3200 nM.
On to `O=C(Nc1c2c(cc3c1CCC3)CCC2)NS(=O)(=O)c1ccn(Cc2ncco2)n1` [Example 35, N-((1,2,3,5,6,7-Hexahydro-s-indacen-4-yl)carbamoyl)-1-(oxazol-2-ylmethyl)-1H-pyrazole-3-sulfonamide], for which the IC50 at NLRP3 [1] was less than 160 nM; at NLRP3 [2], less than 10000 nM.
Taken in the same sequence, the figures for `Cn1ccnc1Cn1ccc(S(=O)(=O)NC(=O)Nc2c3c(cc4c2CCC4)CCC3)n1` [Example 118, N-((1,2,3,5,6,7-Hexahydro-s-indacen-4-yl)carbamoyl)-1-((1-methyl-1H-imidazol-2-yl)methyl)-1H-pyrazole-3-sulfonamide] were less than 40 nM and less than 800 nM.
As for `CN(C)C1(c2cc(S(=O)(=O)NC(=O)Nc3c4c(cc5c3CCC5)CCC4)nn2C)COC1` [Example 122, 5-(3-(Dimethylamino)oxetan-3-yl)-N-((1,2,3,5,6,7-hexahydro-s-indacen-4-yl)carbamoyl)-1-methyl-1H-pyrazole-3-sulfonamide], the concentration for half-maximal inhibition (IC50) on NLRP3 [1] was less than 640 nM; on NLRP3 [2], less than 1600 nM.
Taken in the same sequence, the figures for `COCCN(C)Cc1cc(S(=O)(=O)NC(=O)Nc2c3c(cc4c2CCC4)CCC3)nn1C` [Example 126, N-((1,2,3,5,6,7-Hexahydro-s-indacen-4-yl)carbamoyl)-5-(((2-methoxyethyl)(methyl)amino)methyl)-1-methyl-1H-pyrazole-3-sulfonamide, sodium salt] were less than 640 nM and less than 3200 nM.
Taken in the same sequence, the figures for `CC(=O)N(C)Cc1cc(S(=O)(=O)NC(=O)Nc2c3c(cc4c2CCC4)CCC3)nn1C(C)C` [Example 129, N-((3-(N-((1,2,3,5,6,7-Hexahydro-s-indacen-4-yl)carbamoyl)sulfamoyl)-1-isopropyl-1H-pyrazol-5-yl)methyl)-N-methylacetamide] were less than 160 nM and less than 800 nM.
The like results for `CNC(=O)c1cc(S(=O)(=O)NC(=O)Nc2c(C(C)C)cc(Cl)cc2C(C)C)nn1C` [Example 132, 3-(N-((4-chloro-2,6-diisopropylphenyl)carbamoyl)sulfamoyl)-N,1-dimethyl-1H-pyrazole-5-carboxamide] were, in that order, less than 640 nM and less than 3200 nM.
For `CC(C)c1cccc(C(C)C)c1NC(=O)NS(=O)(=O)c1cc(C(=O)N2CC(F)C2)n(C)n1` [Example 139, N-((2,6-Diisopropylphenyl)carbamoyl)-5-(3-fluoroazetidine-1-carbonyl)-1-methyl-1H-pyrazole-3-sulfonamide, sodium salt], the IC50 was less than 2560 nM on NLRP3 [1] and less than 1600 nM at NLRP3 [2].
Taken in the same sequence, the figures for `CC(C)c1cccc(C(C)C)c1NC(=O)NS(=O)(=O)c1cc(C(=O)N(C)C2CC2)n(C)n1` [Example 143, N-Cyclopropyl-3-(N-((2,6-diisopropylphenyl)carbamoyl)sulfamoyl)-N,1-dimethyl-1H-pyrazole-5-carboxamide] were less than 160 nM and less than 1600 nM.
On to `CC(C)c1ccc(C(C)C)c(NC(=O)NS(=O)(=O)c2cc(C(=O)N(C)C)n(C)n2)c1` [Example 144, 3-(N-((2,5-Diisopropylphenyl)carbamoyl)sulfamoyl)-N,N,1-trimethyl-1H-pyrazole-5-carboxamide, sodium salt], for which the values for the IC50 on NLRP3 [1] and at NLRP3 [2] were less than 640 nM and less than 10000 nM, respectively.
The like results for `CC(C)c1cc(F)cc(C(C)C)c1NC(=O)NS(=O)(=O)c1cc(C(=O)N(C)C(C)C)n(C)n1` [Example 147, 3-(N-((4-Fluoro-2,6-diisopropylphenyl)carbamoyl)sulfamoyl)-N-isopropyl-N,1-dimethyl-1H-pyrazole-5-carboxamide] were, in that order, less than 160 nM and less than 800 nM.
With `CCN(C)C(=O)c1cc(S(=O)(=O)NC(=O)Nc2c(C(C)C)cc(F)cc2C(C)C)nn1C` [Example 149, N-Ethyl-3-(N-((4-fluoro-2,6-diisopropylphenyl)carbamoyl)sulfamoyl)-N,1-dimethyl-1H-pyrazole-5-carboxamide, sodium salt], the IC50 was less than 640 nM on NLRP3 [1] and less than 800 nM at NLRP3 [2].
Taken in the same sequence, the figures for `CNC(=O)c1cc(S(=O)(=O)NC(=O)Nc2c(C(C)C)cc(F)cc2C(C)C)nn1C` [Example 150, 3-(N-((4-Fluoro-2,6-diisopropylphenyl)carbamoyl)sulfamoyl)-N,1-dimethyl-1H-pyrazole-5-carboxamide] were less than 640 nM and less than 400 nM.

As usually defined, the IC50 is the concentration that inhibits the measured activity by half.
